In US9101556B2, “Therapeutic agent and therapeutic device for alleviating ischemia-reperfusion injury” (priority 2010, dated 2015):

Test system: myocardial ischemia-reperfusion injury
Assay: Murine myocardial ischemia-reperfusion injury model (60 min LAD ligation, then reperfusion); infarcted area by Evans blue/TTC staining
Format: in vivo, C57BL/6J male mice
Conditions: inhalation from 5 min before until 30 min after start of reperfusion; measured 24 h after reperfusion; vs control (oxygen only); t-test p<0.01
From the text: 10-week old C57BL/6J male mice were used for the experiment. […] However, during this period, the animals were allowed to take ad libitum the antibiotic-containing water. […] After intraperitoneal administration of pentobarbital as an anesthetic and tracheal intubation, each animal was connected to an animal ventilator for respiration care. The left thorax was shaven and disinfected to carry out thoracotomy, and the left anterior descending coronary artery was ligated with a silk thread to maintain a state of ischemia for 60 minutes. The silk thread used for ligation was then released to cause reperfusion. Reperfusion was confirmed by the restart of blood flow. After confirming reperfusion, the thorax was closed, and ventilator care was continued until the animal awakened from anesthesia. After awakening from anesthesia, the tube was removed, and the animal received care in indoor air. […] Based on the image which was obtained, each heart section was measured for the area of the LV (left ventricle), the AAR (area at risk=the ischemic area), and the area of Nec (necrosis; the infarcted area) using ImageJ image processing software to calculate the value of AAR/LV (proportion of the ischemic area in the left ventricle) and that of Nec/AAR (proportion of the infarcted area in the ischemic area). […]

Row | Molecule | Nec/AAR (proportion of the infarcted area in the ischemic area) compared with the control group
1 | nitrogen monoxide | decreased
2 | [HH] [hydrogen] | decreased
